Assay results taken from patent US6737383B1, “Herbicidal oxadiazolidines” (priority 1999, dated 2004).

How the values were obtained:
blackgrass = experiment: Test B pre/postemergence blackgrass; format: in vivo, Alopecurus myosuroides
Method in brief: (§1)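 Herbicidal effect was estimated by eye on a ten-point control scale after plants spent twelve to sixteen days in a greenhouse following soil or foliar treatment. Foliar sprays targeted plants at one to four leaves; all doses were formulated in a non-phytotoxic solvent with surfactant.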

crabgrass = experiment: Test B pre/postemergence crabgrass; format: in vivo, Digitaria sanguinalis
Method in brief: as §1

bedstraw = experiment: Test B pre/postemergence bedstraw; format: in vivo, Galium aparine
Method in brief: as §1

duck salad = experiment: Test B flood test duck salad; format: in vivo, Heteranthera limosa
Method in brief: (§2)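 Plants were grown to the 2-leaf stage before treatment with test chemical, then held in a greenhouse for twelve to sixteen days. Injury was visually rated against untreated controls on a 0–10 scale, where 0 is no effect and 10 is complete control.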

bamyardgrass = experiment: Test B flood test barnyardgrass; format: in vivo, Echinochloa crus-galli
Method in brief: as §2

wheat = experiment: Test B pre/postemergence wheat; format: in vivo, Triticum aestivum
Method in brief: as §1

rape = experiment: Test B pre/postemergence rape; format: in vivo, Brassica napus
Method in brief: as §1

soybean = experiment: Test B pre/postemergence soybean; format: in vivo, Glycine max
Method in brief: as §1

morningglory = experiment: Test B pre/postemergence morningglory; format: in vivo, Ipomoea hederacea
Method in brief: as §1

corn = experiment: Test B pre/postemergence corn; format: in vivo, Zea mays
Method in brief: as §1

smallflower flatsedge = experiment: Test B flood test smallflower flatsedge; format: in vivo, Cyperus difformis
Method in brief: as §2

surinam grass = experiment: Test B pre/postemergence surinam grass; format: in vivo, Brachiaria decumbens
Method in brief: as §1

giant foxtail = experiment: Test B pre/postemergence giant foxtail; format: in vivo, Setaria faberii
Method in brief: as §1

velvetleaf = experiment: Test B pre/postemergence velvetleaf; format: in vivo, Abutilon theophrasti
Method in brief: as §1

wild oat = experiment: Test B pre/postemergence wild oat; format: in vivo, Avena fatua
Method in brief: as §1

cocklebur = experiment: Test B pre/postemergence cocklebur; format: in vivo, Xanthium strumarium
Method in brief: as §1

[1] = Postemergence, Rate 62 g/ha, scale 0 to 10, 0 is no effect, 10 is complete control
[2] = Postemergence, Rate 250 g/ha, scale 0 to 10, 0 no effect, 10 complete control
[3] = Preemergence, Rate 62 g/ha, scale 0 to 10 (0 no effect, 10 complete control)
[4] = Preemergence, Rate 125 g/ha, scale 0 to 10 (0 no effect, 10 complete control)
[5] = Preemergence, Rate 250 g/ha, scale of 0 to 10 where 0 is no effect and 10 is complete control
[6] = Preemergence, Rate 500 g/ha, scale 0 (no effect) to 10 (complete control)
[7] = Rate 125 g/ha, Postemergence, scale 0 to 10, 0 no effect, 10 complete control
[8] = Rate 500 g/ha, Postemergence, scale 0 to 10, 0 no effect, 10 complete control
[9] = Rate 125 g/ha, Postemergence section (flood test species), scale 0 to 10, 0 no effect, 10 complete control
[10] = Rate 500 g/ha, listed under Postemergence (flood test species), scale 0 to 10, 0 no effect, 10 complete control
[11] = flood test, listed under Postemergence, Rate 250 g/ha, scale 0 to 10, 0 no effect, 10 complete control

Compound: Cc1cccc(C(C)C)c1-n1c(=O)on(C(=O)N(c2ccccc2)C(C)C)c1=O [Compound 66]
- Blackgrass plant response rating (blackgrass; [1]): 0
- Blackgrass plant response rating (blackgrass; [2]): 2
- Blackgrass plant response rating (blackgrass; [3]): 0
- Plant response rating, Blackgrass (blackgrass; [4]): 0
- Plant response rating, Blackgrass (blackgrass; [5]): 0
- Blackgrass plant response rating (blackgrass; [6]): 0
- Blackgrass plant response rating (blackgrass; [7]): 0
- Blackgrass plant response rating (blackgrass; [8]): 3
- Crabgrass plant response rating (crabgrass; [1]): 0
- Crabgrass plant response rating (crabgrass; [2]): 0
- Crabgrass plant response rating (crabgrass; [3]): 0
- Plant response rating, Crabgrass (crabgrass; [4]): 2
- Plant response rating, Crabgrass (crabgrass; [5]): 4
- Crabgrass plant response rating (crabgrass; [6]): 8
- Crabgrass plant response rating (crabgrass; [7]): 0
- Crabgrass plant response rating (crabgrass; [8]): 0
- Bedstraw plant response rating (bedstraw; [1]): 0
- Bedstraw plant response rating (bedstraw; [2]): 0
- Bedstraw plant response rating (bedstraw; [3]): 0
- Plant response rating, Bedstraw (bedstraw; [4]): 0
- Plant response rating, Bedstraw (bedstraw; [5]): 0
- Bedstraw plant response rating (bedstraw; [6]): 0
- Bedstraw plant response rating (bedstraw; [7]): 0
- Bedstraw plant response rating (bedstraw; [8]): 2
- Ducksalad plant response rating (duck salad; [1]): 0
- Ducksalad plant response rating (duck salad; [9]): 0
- Ducksalad plant response rating (duck salad; [10]): 2
- Ducksalad plant response rating (duck salad; [11]): 0
- Barnyardgrass plant response rating (bamyardgrass; [1]): 0
- Barnyardgrass plant response rating (bamyardgrass; [9]): 0
- Barnyardgrass plant response rating (bamyardgrass; [10]): 3
- Barnyardgrass plant response rating (bamyardgrass; [11]): 0
- Wheat plant response rating (wheat; [1]): 0
- Wheat plant response rating (wheat; [2]): 0
- Wheat plant response rating (wheat; [3]): 0
- Plant response rating, Wheat (wheat; [4]): 0
- Plant response rating, Wheat (wheat; [5]): 0
- Wheat plant response rating (wheat; [6]): 0
- Wheat plant response rating (wheat; [7]): 0
- Wheat plant response rating (wheat; [8]): 0
- Rape plant response rating (rape; [1]): 0
- Rape plant response rating (rape; [2]): 0
- Rape plant response rating (rape; [3]): 0
- Plant response rating, Rape (rape; [4]): 0
- Plant response rating, Rape (rape; [5]): 0
- Rape plant response rating (rape; [6]): 0
- Rape plant response rating (rape; [7]): 0
- Rape plant response rating (rape; [8]): 0
- Soybean plant response rating (soybean; [1]): 1
- Soybean plant response rating (soybean; [2]): 2
- Soybean plant response rating (soybean; [3]): 0
- Plant response rating, Soybean (soybean; [4]): 0
- Plant response rating, Soybean (soybean; [5]): 0
- Soybean plant response rating (soybean; [6]): 0
- Soybean plant response rating (soybean; [7]): 1
- Soybean plant response rating (soybean; [8]): 3
- Morningglory plant response rating (morningglory; [1]): 0
- Morningglory plant response rating (morningglory; [2]): 1
- Morningglory plant response rating (morningglory; [3]): 0
- Plant response rating, Morningglory (morningglory; [4]): 0
- Plant response rating, Morningglory (morningglory; [5]): 0
- Morningglory plant response rating (morningglory; [6]): 0
- Morningglory plant response rating (morningglory; [7]): 1
- Morningglory plant response rating (morningglory; [8]): 2
- Corn plant response rating (corn; [1]): 0
- Corn plant response rating (corn; [2]): 0
- Corn plant response rating (corn; [3]): 0
- Plant response rating, Corn (corn; [4]): 0
- Plant response rating, Corn (corn; [5]): 0
- Corn plant response rating (corn; [6]): 0
- Corn plant response rating (corn; [7]): 0
- Corn plant response rating (corn; [8]): 2
- S. Flatsedge plant response rating (smallflower flatsedge; [1]): 0
- S. Flatsedge plant response rating (smallflower flatsedge; [9]): 0
- S. Flatsedge plant response rating (smallflower flatsedge; [10]): 3
- S. Flatsedge plant response rating (smallflower flatsedge; [11]): 2
- B. signalgrass plant response rating (surinam grass; [1]): 0
- B. signalgrass plant response rating (surinam grass; [2]): 0
- B. signalgrass plant response rating (surinam grass; [3]): 0
- Plant response rating, B. signalgrass (surinam grass; [4]): 0
- Plant response rating, B. signalgrass (surinam grass; [5]): 0
- B. signalgrass plant response rating (surinam grass; [6]): 0
- B. signalgrass plant response rating (surinam grass; [7]): 0
- B. signalgrass plant response rating (surinam grass; Rate 500 g/ha, Postemergence, scale of 0 to 10 where 0 is no effect and 10 is complete control): 0
- Giant foxtail plant response rating (giant foxtail; [1]): 0
- Giant foxtail plant response rating (giant foxtail; [2]): 0
- Giant foxtail plant response rating (giant foxtail; [3]): 4
- Plant response rating, Giant foxtail (giant foxtail; [4]): 4
- Plant response rating, Giant foxtail (giant foxtail; [5]): 6
- Giant foxtail plant response rating (giant foxtail; [6]): 9
- Giant foxtail plant response rating (giant foxtail; [7]): 0
- Giant foxtail plant response rating (giant foxtail; [8]): 0
- Velvetleaf plant response rating (velvetleaf; [1]): 0
- Velvetleaf plant response rating (velvetleaf; [2]): 0
- Velvetleaf plant response rating (velvetleaf; [3]): 0
- Plant response rating, Velvetleaf (velvetleaf; [4]): 0
- Plant response rating, Velvetleaf (velvetleaf; [5]): 0
- Velvetleaf plant response rating (velvetleaf; [6]): 0
- Velvetleaf plant response rating (velvetleaf; [7]): 0
- Velvetleaf plant response rating (velvetleaf; [8]): 2
- Wild oats plant response rating (wild oat; [1]): 0
- Wild oats plant response rating (wild oat; [2]): 0
- Wild oats plant response rating (wild oat; [3]): 0
- Plant response rating, Wild oats (wild oat; [4]): 0
- Plant response rating, Wild oats (wild oat; [5]): 0
- Wild oats plant response rating (wild oat; [6]): 2
- Wild oats plant response rating (wild oat; [7]): 0
- Wild oats plant response rating (wild oat; [8]): 0
- Cocklebur plant response rating (cocklebur; [1]): 0
- Cocklebur plant response rating (cocklebur; [2]): 0
- Cocklebur plant response rating (cocklebur; [3]): 0
- Plant response rating, Cocklebur (cocklebur; [4]): 0
- Plant response rating, Cocklebur (cocklebur; [5]): 0
- Cocklebur plant response rating (cocklebur; [6]): 0
- Cocklebur plant response rating (cocklebur; [7]): 0
- Cocklebur plant response rating (cocklebur; [8]): 0
